The nature of data set [1]: Metabolic stability in human hepatic microsomes assessed per mg of protein at 1 uM. Type of data set: ADME, Liver.
Data set [2] has as its target Dipeptidyl peptidase 2 (Rattus norvegicus, UniProt Q9EPB1). Briefly: Inhibition of rat kidney DDP2 after 60 mins by spectrophotometry.
The nature of data set [3]: Bioavailability in dog at 0.1 mg/kg, iv and 1 mg/kg, po by LC/MS/MS analysis. Type of data set: ADME, organism-based, Canis lupus familiaris. As to conditions: in vivo.
Data set [4] is described as follows: Bioavailability in rat at 0.1 mg/kg, iv and 1 mg/kg, po by LC/MS/MS analysis. Type of data set: ADME, organism-based. The following applies: in vivo.
The nature of data set [5]: Metabolic stability in rat hepatic microsomes assessed per mg of protein at 1 uM. Type of data set: ADME, Liver.
Data set [6] has as its target Dipeptidyl peptidase 8 (Homo sapiens, UniProt Q6V1X1). Briefly: Inhibition of human DDP8 expressed in HEK293-F cells after 90 mins by spectrophotometry. The format is cell-based.
The species named for data set [7] is Canis familiaris. As to conditions: Canis lupus familiaris; Plasma; 0.5 mg/kg.
Description: Ex vivo inhibition of DDP4 in dog plasma at 0.5 mg/kg, po up to 1 hr
The nature of data set [8]: Solubility of the compound at pH 1.2 after 2 hrs. The format is physicochemical. As to conditions: buffer.
The test system of data set [9] is Canis familiaris. Briefly: Ex vivo inhibition of DDP4 in dog plasma at 0.5 mg/kg, po after 24 hrs. Type of data set: functional. As to conditions: Canis lupus familiaris.
Data set [10] can be described thus: Metabolic stability in dog hepatic microsomes assessed per mg of protein at 1 uM. The format is ADME, Canis lupus familiaris, Liver.
Data set [11] in a line: Solubility of the compound at pH 6.8 after 2 hrs. The following applies: buffer. Type of data set: physicochemical.
Data set [12] is described as follows: Mean residence time in rat at 1 mg/kg, po by LC/MS/MS analysis. The following applies: in vivo. The format is ADME, organism-based. On the set-up: dose 1 mg/kg, route oral.
A short description of data set [13]: Mean residence time in dog at 1 mg/kg, po by LC/MS/MS analysis. Type of data set: ADME, organism-based, Canis lupus familiaris. On the set-up: dose 1 mg/kg, route oral. As to conditions: in vivo.

The results in this text go back to ChEMBL document CHEMBL1641432, “Design and synthesis of 3-pyridylacetamide derivatives as dipeptidyl peptidase IV (DPP-4) inhibitors targeting a bidentate interaction with Arg125” (Bioorg Med Chem, 2011).

Calls of active or inactive are those of the source. The rule behind the calls is not given here.

Dipeptidyl peptidase 2, sequence (Q9EPB1 whole entry): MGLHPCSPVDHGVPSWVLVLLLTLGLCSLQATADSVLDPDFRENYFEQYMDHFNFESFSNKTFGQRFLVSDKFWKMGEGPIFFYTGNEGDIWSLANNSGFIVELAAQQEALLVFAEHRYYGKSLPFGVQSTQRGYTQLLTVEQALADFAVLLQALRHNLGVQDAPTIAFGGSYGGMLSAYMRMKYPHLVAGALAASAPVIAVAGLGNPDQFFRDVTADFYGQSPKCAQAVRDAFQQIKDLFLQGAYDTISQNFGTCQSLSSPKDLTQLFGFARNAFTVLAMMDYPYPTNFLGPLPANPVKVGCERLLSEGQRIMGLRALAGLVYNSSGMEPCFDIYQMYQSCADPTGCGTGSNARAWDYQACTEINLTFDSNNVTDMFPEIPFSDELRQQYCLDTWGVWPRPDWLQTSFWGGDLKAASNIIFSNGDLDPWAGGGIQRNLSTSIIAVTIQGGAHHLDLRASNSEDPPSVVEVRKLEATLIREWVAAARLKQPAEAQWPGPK
Dipeptidyl peptidase 8, sequence (Q6V1X1 whole entry): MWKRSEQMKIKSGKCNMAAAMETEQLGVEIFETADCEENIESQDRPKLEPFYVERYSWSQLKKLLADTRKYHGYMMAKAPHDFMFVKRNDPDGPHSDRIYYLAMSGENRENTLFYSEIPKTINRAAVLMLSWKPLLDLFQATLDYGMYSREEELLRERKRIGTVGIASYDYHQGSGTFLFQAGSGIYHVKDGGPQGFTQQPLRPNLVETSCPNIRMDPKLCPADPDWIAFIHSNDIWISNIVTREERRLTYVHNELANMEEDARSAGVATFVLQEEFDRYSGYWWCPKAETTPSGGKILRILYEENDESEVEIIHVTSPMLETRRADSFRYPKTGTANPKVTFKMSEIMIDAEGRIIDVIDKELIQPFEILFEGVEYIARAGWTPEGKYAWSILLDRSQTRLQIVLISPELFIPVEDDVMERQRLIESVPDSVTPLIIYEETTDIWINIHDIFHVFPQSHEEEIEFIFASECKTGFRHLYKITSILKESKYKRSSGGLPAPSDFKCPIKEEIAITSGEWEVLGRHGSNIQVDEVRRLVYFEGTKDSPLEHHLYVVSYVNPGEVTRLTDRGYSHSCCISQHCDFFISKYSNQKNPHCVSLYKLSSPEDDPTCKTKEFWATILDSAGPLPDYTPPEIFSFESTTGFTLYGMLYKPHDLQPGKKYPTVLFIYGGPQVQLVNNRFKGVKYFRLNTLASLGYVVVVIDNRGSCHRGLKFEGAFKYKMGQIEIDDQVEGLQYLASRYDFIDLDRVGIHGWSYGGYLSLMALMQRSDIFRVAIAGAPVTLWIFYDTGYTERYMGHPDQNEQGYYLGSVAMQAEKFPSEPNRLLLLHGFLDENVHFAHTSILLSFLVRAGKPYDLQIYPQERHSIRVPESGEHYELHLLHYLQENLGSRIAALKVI

The IC50 is the concentration at which inhibition is half-maximal. Lower therefore signals inhibition by little substance. What is called bioavailability is dose-corrected exposure relative to a reference, in per cent. Read a low bioavailability as poor availability. The term solubility denotes how much of the substance goes into solution per volume. For orientation: inhibition in vivo means the share of the control response that was lost under treatment. In general, MRT refers to a mean duration of stay, worked out from the concentration-time curve. Consider `Cc1ccc(-c2c(CC(=O)N3CCC[C@H]3C(N)=O)c(C)nc(CC(C)C)c2CN)cc1.Cl.Cl`, for which the Stability in data set [1] is 4 µL/min; in data set [5] it was below 1 µL/min; in [10], 2 µL/min. For the same molecule, the IC50 in data set [2] was above 100 µM; in data set [6], above 30 µM. Also, the bioavailability amounted to 21.3% in data set [3] and 4.9% in data set [4]. Further, the inhibition entry in [7] was “Active”. For the same molecule, the solubility at 2 h in data set [8] worked out at 86 µg/mL; in [11], 71 µg/mL. This molecule came in with an inhibition in vivo at 0.5 mg/kg in data set [9] of 90%. For the same molecule, the MRT in data set [12] stood at 11.2 h; in [13], 4.35 h.
